Assays:
[1] = tested on: SK-MEL-2 human melanoma cell line; test: cells; conditions: Homo sapiens, SK-MEL-2, 72 h
Procedure, shortened: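 SK-MEL-2 melanoma cells (5,000/well) grown 24 h drug-free, then exposed 72 h to vehicle or test compounds. Viability by MTT reduction (8 h, 37 °C), formazan dissolved in DMSO; results expressed as percentage of control cell growth.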

[2] = tested on: HepG2 human hepatocellular liver carcinoma cell line; test: MTT cytotoxicity assay in HepG2 cells: IC50 of single agents and combinations with PM01183; type: cell-based; conditions: Homo sapiens, HepG2, 72 h
[3] = tested on: RAMOS human lymphoma cell line; test: cells; conditions: Homo sapiens, Ramos, 72 h
Description: (§1) Briefly, cells were seeded in 96 well microtiter plates at a density of 50000 cells per well in 150 μL of culture medium and incubated for 4-6 hours in drug-free medium before treatment with vehicle alone or test compounds for 72 hours.
(§2) After incubation, the cytotoxic effect was evaluated using a MTT reduction assay. 50 μL of MTT solution (1 mg/mL) were added to the wells and incubated for 15-17 hours at 37° C. until formazan crystals were formed. After gently removing the culture medium, DMSO was added to dissolve the insoluble purple formazan product into a colored solution. […] Results were expressed as percentage of control cell growth. The EC50 values (half-maximal effective concentration) used for the combination studies were calculated using Prism v5.02 software (GraphPad). EC50 was expressed as molar concentration and represented the mean of at least three independent assays.
(§3) Using these starting concentrations, constant serial dilutions were performed to generate the concentration-response curves for each set of drugs, alone and in combination.
(§4) Based on this equation, the term “combination index” (CI) is used as a quantitative measure of the degree of drug interactions. […] CI values were calculated by solving the equation for different values of fa (i.e., for different degrees of cell groth inhibition).
(§5) Data were analyzed using CalcuSyn software (Biosoft, Cambridge, UK). For statistical analysis and graphs Prism software (GraphPad, San Diego, USA) was used. All the results represent the mean of at least three independent experiments.
(§6) Additional serial dilutions were prepared in serum-free culture medium to achieve a final 4× concentration. Aliquots of 50 μL of each diluted compound were added per well.
(§7) In the second set of assays, concentration-response curves for the agents tested, both alone and in two-drug combination, were performed.

[4] = tested on: U-937 human lymphoma cell line; test: cells; conditions: Homo sapiens, U-937, 72 h
Description: as §1, §2, §3, §4, §5, §6, §7

U87-MG tumors = test: Human brain tumor xenografts (U87-MG) in athymic nude mice, tumor volume % T/C; type: in vivo
Description: Female athymic nude mice (Harlan Laboratories Models, S.L. (Barcelona, Spain) were utilized for all experiments. Animals were housed in individually ventilated cages, up to ten per cage in a 12-hour light-dark cycle at 21-23° C. and 40-60% humidity. The mice were allowed free access to irradiated standard rodent diet and sterilized water. Animals were acclimated for at least 5 days prior to tumor implantation with a tumor cell suspension.
The tumor model used in these studies was U87-MG cell line, which was obtained from the American Type Culture Collection (ATCC HTB-14™).
U87-MG cells were grown at 37° C. with 5% CO2 in Minimum Essential Medium Eagle (MEME). Each animal was subcutaneously implanted on the right flank, using 26G needle and a 1 cc syringe, with 5×10^6 U87-MG cells, from in vitro passage 5, in 0.05 mL suspension of 50% Matrigel and 50% serum free medium, without antibiotics.
PM01183 was provided in the form of vials of lyophilized PM01183 cake which was reconstituted with water for infusion to a concentration of 0.2 mg/mL. The PM01183 stock solution was further diluted in 5% glucose solution for injection to the dosing formulation concentrations. Temozolomide was provided as a solution prepared by diluting the product in DMSO 10% in 0.9% saline solution for injection to the target final concentration.
In these experiments, PM01183 and temozolomide treatments, as well as placebo, were administered as follows: PM01183, intravenously once per week up to 3 consecutive weeks, on Days 0, 7 and 14, temozolomide orally, in a daily basis during 8 consecutive days (Days 0 to 7), and placebo was administered following the same schedule as those provided for PM01183 and temozolomide. Dose level groups were administered either as single agents or in combination.
Comparison of the median tumor volume in the treatment groups (T) to the median tumor volume in the control group (T/C×100%) was used for evaluation of the antitumor efficacy.

## COc1ccc2[nH]c3c(c2c1)CCN[C@]31CS[C@@H]2c3c(OC(C)=O)c(C)c4c(c3[C@H](COC1=O)N1[C@@H]2[C@H]2c3c(cc(C)c(OC)c3O)C[C@@H]([C@@H]1O)N2C)OCO4 [PM01183]
[1]
  IC50: 2 nM
[2]
  IC50: 2.5 nM
[3]
  EC50: 1.39 nM
[4]
  EC50: 1.03 nM
U87-MG tumors; PM01183 0.045 mg/kg
  % T/C on day 0: 98.2%
  % T/C on day 2: 101.0%
  % T/C on day 4: 80.4%
  % T/C on day 7: 83.8%
  % T/C on day 9: 78.8%
  % T/C on day 11: 77.7%
  % T/C on day 14: 76.7%
  % T/C on day 16: 82.5%
U87-MG tumors; PM01183 0.09 mg/kg
  % T/C on day 0: 97.9%
  % T/C on day 2: 99.5%
  % T/C on day 4: 74.4%
  % T/C on day 7: 85.1%
  % T/C on day 9: 69.4%
  % T/C on day 11: 71.8%
  % T/C on day 14: 74.1%
  % T/C on day 16: 73.5%
U87-MG tumors; PM01183 0.135 mg/kg
  % T/C on day 0: 98.5%
  % T/C on day 2: 90.5%
  % T/C on day 4: 61.2%
  % T/C on day 7: 71.3%
  % T/C on day 9: 67.7%
  % T/C on day 11: 65.3%
  % T/C on day 14: 64.2%
  % T/C on day 16: 63.6%
U87-MG tumors; PM01183 0.18 mg/kg
  % T/C on day 0: 99.8%
  % T/C on day 2: 95.5%
  % T/C on day 4: 64.8%
  % T/C on day 7: 63.2%
  % T/C on day 9: 52.0%
  % T/C on day 11: 44.1%
  % T/C on day 14: 38.5%
  % T/C on day 16: 37.1%
